Measured values reported in patent US8148373B2, “Compounds” (AstraZeneca AB, priority 2008, dated 2012).
Where a name gives a salt, the structure may show the parent alone.

Tests used:
[1] = target: T1, human muscarinic acetylcholine M3 receptor (M3-ACh) (Homo sapiens, UniProt P20309); experiment: Muscarinic 3 Receptor Binding Assay ([3H]NMS competition, SPA); settings: [3H]NMS 0.1 nM, CHO-K1 cell membranes, 16 hours at room temperature; read-out: M3 pIC50 (converted)
T1 construct: expressed in transfected cells; host or cells: CHO-K1 (Chinese Hamster Ovary) cell membranes
T1 sequence (P20309 whole entry): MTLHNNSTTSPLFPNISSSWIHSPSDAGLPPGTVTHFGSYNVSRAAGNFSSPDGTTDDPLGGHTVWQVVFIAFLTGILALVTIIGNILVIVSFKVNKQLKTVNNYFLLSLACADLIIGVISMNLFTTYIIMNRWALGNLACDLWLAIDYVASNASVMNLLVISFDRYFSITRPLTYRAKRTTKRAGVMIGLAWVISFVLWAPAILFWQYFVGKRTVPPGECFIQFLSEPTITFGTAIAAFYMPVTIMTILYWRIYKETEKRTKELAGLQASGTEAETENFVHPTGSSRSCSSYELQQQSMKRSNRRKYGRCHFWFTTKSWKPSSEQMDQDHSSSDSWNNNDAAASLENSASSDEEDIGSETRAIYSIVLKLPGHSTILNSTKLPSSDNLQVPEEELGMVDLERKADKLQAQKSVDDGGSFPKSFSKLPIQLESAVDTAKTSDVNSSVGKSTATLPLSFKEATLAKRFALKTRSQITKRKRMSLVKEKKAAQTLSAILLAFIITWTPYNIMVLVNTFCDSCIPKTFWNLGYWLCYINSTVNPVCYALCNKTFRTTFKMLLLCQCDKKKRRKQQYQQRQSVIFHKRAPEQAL
Outline: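 Competition SPA binding of 0.1 nM [3H]NMS (quarter Kd) to membranes from CHO-K1 cells expressing human M3, in 20 mM HEPES pH 7.4, 5 mM MgCl2, 1% DMSO. Incubated 16 h at room temperature; non-specific binding with 1 µM atropine. pIC50 from 50% reduction of specific binding.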

[2] = target: T2, Adrenergic β2 (H292 cells) (Homo sapiens, UniProt P07550); experiment: Assay for Adrenergic β2 Mediated cAMP Production (concentration response, AlphaScreen cAMP detection); format: cell-based; settings: for EC50: cAMP production, 60 minutes at room temperature, 300 μM rolipram, read-out: β2 pEC50 (converted); for β2 Intrinsic activity: fraction relative to the maximum activity determined for formoterol
T2 construct: endogenous in cells; host or cells: H292 cells
T2 sequence (P07550 whole entry): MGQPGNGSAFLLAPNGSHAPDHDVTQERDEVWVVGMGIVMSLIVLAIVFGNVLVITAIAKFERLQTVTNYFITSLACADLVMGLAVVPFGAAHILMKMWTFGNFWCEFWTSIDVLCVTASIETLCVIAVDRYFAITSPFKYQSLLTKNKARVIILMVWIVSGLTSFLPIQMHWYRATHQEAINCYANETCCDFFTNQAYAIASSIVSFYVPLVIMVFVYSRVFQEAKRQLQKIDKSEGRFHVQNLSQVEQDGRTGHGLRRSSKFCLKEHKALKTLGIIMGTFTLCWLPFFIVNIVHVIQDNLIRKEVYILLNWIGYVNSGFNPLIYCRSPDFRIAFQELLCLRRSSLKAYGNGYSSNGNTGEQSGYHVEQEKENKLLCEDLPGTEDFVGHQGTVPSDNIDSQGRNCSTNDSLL
Outline: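 Intrinsic activity is relative to the per-experiment formoterol maximum, with pEC50 from a four-parameter logistic fit of cAMP levels quantified by AlphaScreen against standards. Cells (H292) got 300 μM rolipram for 10 min, then compound for 60 min at room temperature, 1% DMSO final.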

IC50 [1]	EC50 [2]	β2 Intrinsic activity [2]	Structure (SMILES)
6.31 nM	31.6 nM	1.1	CC(C)c1nc(C(=O)N2CCOC3(CCN(CCOc4ccc(CCNC[C@H](O)c5ccc(O)c6[nH]c(=O)sc56)c(F)c4F)CC3)C2)cs1 [Example 269, (R)-7-(2-(2,3-Difluoro-4-(2-(4-(2-isopropylthiazole-4-carbonyl)-1-oxa-4,9-diazaspiro[5.5]undecan-9-yl)ethoxy)phenethylamino)-1-hydroxyethyl)-4-hydroxybenzo[d]thiazol-2(3H)-one ditrifluoroacetate]
2.51 nM	1.26 nM	1	Cc1ccc(C(=O)N2CCOC3(CCN(Cc4cc(CCNC[C@H](O)c5ccc(O)c6[nH]c(=O)sc56)cs4)CC3)C2)s1 [Example 27, (R)-4-Hydroxy-7-(1-hydroxy-2-(2-(5-((4-(5-methylthiophene-2-carbonyl)-1-oxa-4,9-diazaspiro[5.5]undecan-9-yl)methyl)thiophen-3-yl)ethylamino)ethyl)benzo[d]thiazol-2(3H)-one ditrifluoroacetate]
0.501 nM	12.6 nM	0.8	CC(C)c1cc(C(=O)N2CCOC3(CCN(Cc4cccc(CCNC[C@H](O)c5ccc(O)c6[nH]c(=O)ccc56)c4)CC3)C2)cs1 [Example 83, (R)-8-Hydroxy-5-(1-hydroxy-2-(3-((4-(5-isopropylthiophene-3-carbonyl)-1-oxa-4,9-diazaspiro[5.5]undecan-9-yl)methyl)phenethylamino)ethyl)quinolin-2(1H)-one ditrifluoroacetate]
0.316 nM	7.94 nM	0.7	O=C(c1ccc2occc2c1)N1CCOC2(CCN(Cc3cccc(CCNC[C@H](O)c4ccc(O)c5[nH]c(=O)sc45)c3)CC2)C1 [Example 266, (R)-7-(2-(3-((4-(Benzofuran-5-carbonyl)-1-oxa-4,9-diazaspiro[5.5]undecan-9-yl)methyl)phenethylamino)-1-hydroxyethyl)-4-hydroxybenzo[d]thiazol-2(3H)-one ditrifluoroacetic acid]

The remaining lines, values behind:

Structure (SMILES)	IC50 [1]	EC50 [2]	β2 Intrinsic activity [2]
Cc1nc(C(=O)N2CCOC3(CCN(Cc4cccc(CCNC[C@H](O)c5ccc(O)c6[nH]c(=O)sc56)c4)CC3)C2)cs1 [Example 6, (R)-4-Hydroxy-7-(1-hydroxy-2-(3-((4-(2-methylthiazole-4-carbonyl)-1-oxa-4,9-diazaspiro[5.5]undecan-9-yl)methyl)phenethylamino)ethyl)benzo[d]thiazol-2(3H)-one ditrifluoroacetate]	0.316 nM	3.98 nM	0.9
Cc1nc(C(=O)N2CCOC3(CCN(Cc4cccc(CCNC[C@H](O)c5ccc(O)c6[nH]c(=O)ccc56)c4)CC3)C2)cs1 [Example 7, (R)-8-Hydroxy-5-(1-hydroxy-2-(3-((4-(2-methylthiazole-4-carbonyl)-1-oxa-4,9-diazaspiro[5.5]undecan-9-yl)methyl)phenethylamino)ethyl)quinolin-2(1H)-one ditrifluoroacetate]	0.501 nM	6.31 nM	0.8
CC(C)c1nc(C(=O)N2CCOC3(CCN(CCCCCCSCCNC[C@H](O)c4ccc(O)c5[nH]c(=O)sc45)CC3)C2)cs1 [Example 101, (R)-4-Hydroxy-7-(1-hydroxy-2-(2-(6-(4-(2-isopropylthiazole-4-carbonyl)-1-oxa-4,9-diazaspiro[5.5]undecan-9-yl)hexylthio)ethylamino)ethyl)benzo[d]thiazol-2(3H)-one formate]	0.316 nM	158 nM	1
O=C(c1csc(CC(F)(F)F)n1)N1CCOC2(CCN(Cc3cccc(CCNC[C@H](O)c4ccc(O)c5[nH]c(=O)sc45)c3F)CC2)C1 [Example 67, (R)-7-(2-(2-Fluoro-3-((4-(2-(2,2,2-trifluoroethyl)thiazole-4-carbonyl)-1-oxa-4,9-diazaspiro[5.5]undecan-9-yl)methyl)phenethylamino)-1-hydroxyethyl)-4-hydroxybenzo[d]thiazol-2(3H)-one ditrifluoroacetate]	3.16 nM	15.8 nM	0.9
